Reference: patent publication US12343319B2, “Compositions and methods for treatment of diseases and disorders” (Atai Therapeutics Inc., priority 2023, dated 2025)

Legend:
[1] = tested on: Male WKY rats; assay: Low-dose sleep, locomotor, body temperature and qEEG study in WKY rats; assay type: in vivo, rat; conditions: 1, 3 and 10 mg/kg IP
Protocol: The aim of the current study was to identify a minimal effective dose of compound by testing a series of lower doses (1, 3 and 10 mg/kg). The study was carried out similarly to Examples 7 and 9 with differences noted below. Male WKY rats (n=8, 255-296 g at the start of dosing) were housed in groups of 2-3 animals per cage with standard housing conditions.

[2] = tested on: primary cortical rat neurons; assay: Synaptogenesis assay in primary cortical rat neurons; assay type: cell-based; conditions: 1 μM (highest concentration), DIV1-DIV10
Protocol: Pregnant rats for this study were purchased from a commercial breeder. Primary cortical neurons from E17/E18 rat pups were isolated and seeded in 96-well plates. Cells were treated with compound 2-2, FGF (Reference item) or vehicle. After incubation with the respective treatment, cortical neurons were stained for synapsin and tubulin using immunofluorescence.
Stained cells were imaged with the Cytation 5 Multimode reader. From each well, 9 images were taken at 10× magnification. Digital images from cortical neurons were analyzed for the following parameter using a software-supported automatic quantification method: Number of synapsin positive objects. Analysis was performed using Gen5 software. The experiment was run in n=10 technical replicates per condition. Vehicle control and FGF were included on each plate totaling n=20 technical replicates.
Primary cortical neurons were prepared from timed pregnant Spargue Dawley rats at E17/E18. Animals were sacrificed (see section 3.3.1) and embryos were dissected in Calcium and Magnesium free Hanks Balanced Salt Solution (CMF-HBSS) containing 15 mM HEPES and 10 mM NaHCO3, pH 7.2. Embryos were decapitated, skin and skull gently removed and hemispheres were separated. After removing meninges and brain stem, the cortices were isolated, chopped with a sterile razor blade in Chop solution (Hibernate-E without Calcium containing 2% B-27) and digested in 2 mg/mL papain (Worthington) dissolved in Hibernate-E without Calcium for 30 minutes (±5 min) at 30° C. The cortices of the embryos from the two rats were pooled and processed together.
Cortices were triturated for 10-15 times with a fire-polished silanized Pasteur pipette in Hibernate-E without Calcium containing 2% B-27, 0.01% DNaseI, 1 mg/mL BSA, and 1 mg/mL Ovomucoid Inhibitor. Undispersed pieces were allowed to settle by gravity for 3 min and the supernatant was centrifuged for 3 min at 228 g. […]
Cells were counted in a hemacytometer and seeded in nutrition medium on poly-D-lysine pre-coated 96-well plates at a density of 1.5×10^4 cells/well. […]

In the case of `COc1ccc(OC)c(CCNCc2cc(C)cc(F)c2)c1` [Compound 2-2, 2-(2,5-dimethoxyphenyl)-N-(3-fluoro-5-methylbenzyl)ethan-1-amine], the body temperature [1] is reported as “did not affect”, the locomotion [1] is reported as “did not affect” and the “synaptogenesis compared to VC (synapsin positive objects normalized to tubulin III area)” value [2] is reported as “did not have any significant effect”.
